Consider five molecules from PMC8226722, “Comparison of Solution Chemical Properties and Biological Activity of Ruthenium Complexes of Selected β-Diketone, 8-Hydroxyquinoline and Pyrithione Ligands” (Pharmaceuticals, 2021).

The nature of data set [1]: Shake-flask n-octanol/water distribution coefficient. To be noted: 25.0 °C, 20 mM phosphate buffer. The class given is physicochemical.
Description: Chloride ion concentrations of 4, 24 and 100 mM were chosen according to the chloride content of the nucleus, cytosol and blood serum, respectively. […] Then parallel artificial membrane permeability assay (PAMPA) was used to estimate the ability of the complexes to penetrate membranes by passive diffusion and the effective passive permeability coefficients (Peff) obtained for complexes 1–3 are shown in Table 4 (in case of 4, there are no data due to formation of precipitate).
Distribution coefficients at physiological pH (D7.4) of the complexes were determined by the traditional shake-flask method in n-octanol/buffered aqueous solution at pH 7.40 (20 mM phosphate buffer) at various chloride concentrations and at 25.0 ± 0.2 °C using UV-vis detection as described in our former works [37, 38, 42]. PAMPA was applied for the complexes with a Gentest pre-coated PAMPA Plate System (Corning, Corning, NY, USA) [56]. Briefly, a 96-well filter plate was used as the permeation acceptor and the 96-well bottom plate was used as the permeation donor. For simplicity, PBS was used both as donor and acceptor buffer throughout this study. […] Peff values were calculated according to the equation reported by Yu et al. [57].
Data set [2] can be described thus: UV-vis interaction with 1-methylimidazole, monodentate binding model of HSA. To be noted: pH 7.4, 102 mM chloride. On the procedure:
In our previous work, the fast interaction of complexes 7 and 8 with thiol-containing low molecular mass endogenous compounds Cys, N-acetylcysteine and glutathione was found on the basis of a mass spectrometry study. The donor atoms generally coordinate at the site of the monodentate co-ligand, however, they can also displace the weakly bound bidentate ligand as well. Herein, interaction of the complexes 1–4 towards 1-methylimidazole (mim), a monodentate binding model of HSA was measured by UV-vis (Figure 7d–f).
The reactions in all cases were very fast (except complex 2 and 4), and the observed spectral changes were similar to those obtained with HSA (Figure 7a–c). There was no indication for the replacement of the bidentate ligand by 1-methylimidazole. Considering that the latter ligand binds at the coordination site of the co-ligand, maximum one complex is able to be bound to 1-methylimidazole. However, the constant spectra upon addition of 1-methylimidazole to the complex 4 could only be reached at high excess of 1-methylimidazole due to its lower tendency to interact with this model (and with HSA as well). Based on these spectral changes, conditional binding constants were calculated for the formation of the 1-methylimidazole adducts. […] The protecting role of PTA in ligand-exchange processes for the complex pair 7 and 8 was also reported regarding their interaction with thiols or protein NCp7 [46, 47].

In data set [3] the test system is hormone dependent MCF-7 breast cancer cell line. On the set-up: method as in PMID 27357845, PMID 31461189, PMID 24189185. The conditions noted are these: read-out: half maximal effective concentration, MCF-7; cited from earlier work.
A further data set concerns osteosarcoma MG63 cells. On the set-up: method as in PMID 25856666. The conditions noted are these: cited from earlier work.
In data set [4] the test system is HeLa 229 human cervix carcinoma cells. Put plainly: MTT cytotoxicity in HeLa 229 cells (maximum non-toxic concentration). The conditions noted are these: 48 h.
Description: (§1) HeLa 229 cells (ATCC) and Vero cells (ATCC) were cultured in minimal essential medium (MEM) (Sigma, Steinheim, Germany) with Earle salts supplemented with 10% heat-inactivated fetal bovine serum (FBS) (Gibco; ThermoFisher Scientific, Inc., Waltham, MA, USA), 2 mM L-glutamine, 1× non-essential amino acids, 8 mM HEPES, 25 μg/mL gentamycin and 1 µg/mL fungisone. The cells were incubated for 1 h at room temperature to reduce the edge effect and then overnight at 37 °C, 5% CO2 to obtain a 90% confluent cell layer.
(§2) The density of cells was 4 × 10^4 cells/well in 100 µL of MEM with Earle salts supplemented with 10% heat-inactivated FBS, 2 mM L-glutamine, 1× MEM vitamins, 1× non-essential amino acids, 0.005% Na-pyruvate, 25 µg/mL gentamycin, 1 µg/mL fungisone). The plates were incubated for 1 h room temperature and then overnight at 37 °C, 5% CO2. Next day, when the cells reached a ~90% confluency, the medium was supplemented with the serial 2-fold dilutions of the complexes in three parallel wells for each concentration. […] After 24 h incubation for Vero cells and 48 h incubation for HeLa cells, 10 µL of the MTT (Sigma, Steinheim, Germany) labelling reagent (final concentration 0.5 mg/mL) was added to each well and the plate was incubated for 4 h at 37 °C, 5% CO2. After the incubation, 100 µL of the solubilisation solution (10% SDS in 1 M HCl) was added into each well, and the plate was allowed to stand overnight in the incubator at 37 °C, 5% CO2.
The subject of a further data set is Chlamydia trachomatis. Put plainly: Antichlamydia activity in HeLa cells, direct qPCR. To be noted: MOI 0.2, 48 h post infection. The class given is cell-based. On the procedure:
Then the Hela cells were infected with C. trachomatis at multiplicity of infection (MOI) 0.2, and were treated with different concentrations of the complexes for 24 h. After 48 h post infection, the cells were lysed and the chlamydial growth reducing effect of the complexes was evaluated by comparing the chlamydial genom concentration to that seen on untreated/infected HeLa cells. The C. trachomatis DNA concentration was measured by direct quantitative PCR (qPCR). The average cycle threshold (Ct) numbers were calculated and –Ct values are shown at the various complex concentrations in Figure 2 for 7 and 8 (and Figure S2 for the rest of the complexes). The maximum C. trachomatis growth corresponded to a DNA concentration of Ct ~19 value as detected by direct qPCR, as well.
The Chlamydia trachomatis strain was propagated and partially purified as described previously with some modifications. The infected cells were stained with monoclonal antichlamydia lipopolysaccharide (LPS) antibody (AbD Serotec, Oxford, UK) and fluorescein isothiocyanate-labeled anti-mouse IgG (Sigma-Aldrich) and the number of cells containing chlamydial inclusions was counted under a UV microscope, and the titer was expressed as the number of inclusion forming units (IFU)/mL. […]

The next data set has as its system ovarian carcinoma CH1. On the set-up: method as in PMID 25856666. To be noted: cited from earlier work.
A further data set deals with Vero cells. Put plainly: MTT cytotoxicity in Vero cells (maximum non-toxic concentration). To be noted: 24 h, up to 100 µM.

Description for Vero cells: The antiviral effect of complexes against HSV-2 was screened using Vero cells (originally isolated from kidney epithelial cells) to host the growing viruses.
as §1, §2

As to `Cc1ccc(C(C)C)cc1.[Cl-].[O-]n1ccccc1=S.[Ru+2]` [complex 1], the logD7.4 in data set [1] (pH 7.4, c(KCl) 4 mM) is on record as −0.43 ± 0.09; in data set [1] (pH 7.4, c(KCl) 24 mM) it was −0.10 ± 0.05; in data set [1] (pH 7.4, c(KCl) 100 mM), “+0.31 ± 0.03”. The “LogK’ conditional binding constant of 1-methylimidazole adduct” value (shortened to “LogK’ conditional binding constant”) in data set [2] stood at 4.16 ± 0.45. The EC50 in data set [3] was 3.8 µM.

Consider `Cc1ccc(C(C)C)cc1.[Cl-].[O-]n1ccc2ccccc2c1=S.[Ru+2]` [complex 3], for which the logD7.4 result in data set [1] (pH 7.4, c(KCl) 4 mM) is listed as “+0.92 ± 0.06”; in data set [1] (pH 7.4, c(KCl) 24 mM), “+1.22 ± 0.04”; in data set [1] (pH 7.4, c(KCl) 100 mM) it was “+1.37 ± 0.06”. Further, the “LogK’ conditional binding constant” value in data set [2] stood at 4.18 ± 0.27.

`C1N2CN3CN1CP(C2)C3.Cc1ccc(C(C)C)cc1.F[P-](F)(F)(F)(F)F.[O-]n1ccc2ccccc2c1=S.[Ru+2]` [complex 4]: the “LogK’ conditional binding constant” value in data set [2] was determined as 3.64 ± 0.02.

Regarding `Cc1ccc(C(C)C)cc1.O=C(C=C([O-])C(F)(F)F)c1ccc(Cl)cc1.[Cl-].[Ru+2]` [complex 7], the IC50 was 64 µM in the data set on osteosarcoma MG63 cells and 17 µM in the data set with ovarian carcinoma CH1. Besides, in data set [4], the “maximum non-toxic concentration, HeLa 229” value was 50 µM. Further, in the data set on Chlamydia trachomatis, the “chlamydial growth difference between treated and untreated cells” value is reported as “ca. 101 fold”. In addition, the “toxicity in Vero cells” value in the data set with Vero cells is “did not produce significant toxicity at any of the concentrations”.

For the molecule `C1N2CN3CN1CP(C2)C3.Cc1ccc(C(C)C)cc1.F[P-](F)(F)(F)(F)F.O=C(C=C([O-])C(F)(F)F)c1ccc(Cl)cc1.[Ru+2]` [complex 8], the IC50 in the data set on osteosarcoma MG63 cells is 41 µM; in the data set with ovarian carcinoma CH1 it was 8 µM. For the same molecule, the “maximum non-toxic concentration, HeLa 229” value in data set [4] is listed as 50 µM. In the data set on Chlamydia trachomatis, the “chlamydial growth difference between treated and untreated cells” value is “ca. 155 fold”. In addition, the “toxicity in Vero cells” value in the data set on Vero cells is “did not produce significant toxicity at any of the concentrations”.
